# Source: paper PMC8185074, “Anchor extension: a structure-guided approach to design cyclic peptides targeting enzyme active sites” (Nature Communications, 2021)
# Peptide text beside a SMILES is read from it.
# Legend:
# Assay type in all cases: biochemical
# [1] = target: T1, HDAC1 (Homo sapiens, UniProt Q13547); assay: HDAC1 inhibition, full IC50 measurement (Reaction Biology; fluorogenic p53 peptide RHKK(Ac)AMC); conditions: t1/t2 replicates
# T1 construct: purchased Reaction Biology Corporation (assay run by the CRO)
# T1 sequence (Q13547 whole entry): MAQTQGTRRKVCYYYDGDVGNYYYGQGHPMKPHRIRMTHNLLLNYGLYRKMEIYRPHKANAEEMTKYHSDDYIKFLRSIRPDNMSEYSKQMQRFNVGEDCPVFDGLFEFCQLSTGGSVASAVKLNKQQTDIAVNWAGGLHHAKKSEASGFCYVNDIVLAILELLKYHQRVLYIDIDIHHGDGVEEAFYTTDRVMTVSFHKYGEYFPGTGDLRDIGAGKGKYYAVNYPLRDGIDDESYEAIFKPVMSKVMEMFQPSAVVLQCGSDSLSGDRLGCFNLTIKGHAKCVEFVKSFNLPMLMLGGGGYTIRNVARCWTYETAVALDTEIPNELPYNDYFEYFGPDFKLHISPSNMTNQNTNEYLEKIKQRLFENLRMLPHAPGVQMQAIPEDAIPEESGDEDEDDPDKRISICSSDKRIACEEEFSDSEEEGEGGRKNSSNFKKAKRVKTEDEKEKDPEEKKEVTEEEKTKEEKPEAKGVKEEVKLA
# Outline: (§1)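 Reaction: enzyme plus acoustically dispensed peptide inhibitor, 50 μM RHKK(Ac)AMC substrate, pH 8.0 Tris buffer with BSA and 1% DMSO, 1 h, 30 °C. Duplicates averaged.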
# [2] = target: T2, HDAC8 (Homo sapiens, UniProt Q9BY41); assay: HDAC8 inhibition, full IC50 measurement (Reaction Biology; fluorogenic p53 peptide RHKK(Ac)AMC); conditions: t1/t2 replicates
# T2 construct: purchased Reaction Biology Corporation (assay run by the CRO)
# T2 sequence (Q9BY41 1-377): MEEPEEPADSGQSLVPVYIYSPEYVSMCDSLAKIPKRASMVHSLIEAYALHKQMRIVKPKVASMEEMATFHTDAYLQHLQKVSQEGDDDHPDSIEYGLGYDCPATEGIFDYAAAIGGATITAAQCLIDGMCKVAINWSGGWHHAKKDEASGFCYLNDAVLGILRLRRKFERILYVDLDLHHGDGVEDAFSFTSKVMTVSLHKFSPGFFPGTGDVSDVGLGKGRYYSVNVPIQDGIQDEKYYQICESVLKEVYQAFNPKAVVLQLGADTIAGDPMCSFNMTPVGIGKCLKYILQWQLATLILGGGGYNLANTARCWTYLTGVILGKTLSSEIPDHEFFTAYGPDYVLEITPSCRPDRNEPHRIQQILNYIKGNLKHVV
# Outline: as §1
# [3] = target: T3, HDAC6 (Homo sapiens, UniProt Q9UBN7); assay: HDAC6 inhibition, full IC50 measurement (Reaction Biology; fluorogenic p53 peptide RHKK(Ac)AMC)
# T3 construct: purchased Reaction Biology Corporation (assay run by the CRO)
# T3 sequence (Q9UBN7 1-1215): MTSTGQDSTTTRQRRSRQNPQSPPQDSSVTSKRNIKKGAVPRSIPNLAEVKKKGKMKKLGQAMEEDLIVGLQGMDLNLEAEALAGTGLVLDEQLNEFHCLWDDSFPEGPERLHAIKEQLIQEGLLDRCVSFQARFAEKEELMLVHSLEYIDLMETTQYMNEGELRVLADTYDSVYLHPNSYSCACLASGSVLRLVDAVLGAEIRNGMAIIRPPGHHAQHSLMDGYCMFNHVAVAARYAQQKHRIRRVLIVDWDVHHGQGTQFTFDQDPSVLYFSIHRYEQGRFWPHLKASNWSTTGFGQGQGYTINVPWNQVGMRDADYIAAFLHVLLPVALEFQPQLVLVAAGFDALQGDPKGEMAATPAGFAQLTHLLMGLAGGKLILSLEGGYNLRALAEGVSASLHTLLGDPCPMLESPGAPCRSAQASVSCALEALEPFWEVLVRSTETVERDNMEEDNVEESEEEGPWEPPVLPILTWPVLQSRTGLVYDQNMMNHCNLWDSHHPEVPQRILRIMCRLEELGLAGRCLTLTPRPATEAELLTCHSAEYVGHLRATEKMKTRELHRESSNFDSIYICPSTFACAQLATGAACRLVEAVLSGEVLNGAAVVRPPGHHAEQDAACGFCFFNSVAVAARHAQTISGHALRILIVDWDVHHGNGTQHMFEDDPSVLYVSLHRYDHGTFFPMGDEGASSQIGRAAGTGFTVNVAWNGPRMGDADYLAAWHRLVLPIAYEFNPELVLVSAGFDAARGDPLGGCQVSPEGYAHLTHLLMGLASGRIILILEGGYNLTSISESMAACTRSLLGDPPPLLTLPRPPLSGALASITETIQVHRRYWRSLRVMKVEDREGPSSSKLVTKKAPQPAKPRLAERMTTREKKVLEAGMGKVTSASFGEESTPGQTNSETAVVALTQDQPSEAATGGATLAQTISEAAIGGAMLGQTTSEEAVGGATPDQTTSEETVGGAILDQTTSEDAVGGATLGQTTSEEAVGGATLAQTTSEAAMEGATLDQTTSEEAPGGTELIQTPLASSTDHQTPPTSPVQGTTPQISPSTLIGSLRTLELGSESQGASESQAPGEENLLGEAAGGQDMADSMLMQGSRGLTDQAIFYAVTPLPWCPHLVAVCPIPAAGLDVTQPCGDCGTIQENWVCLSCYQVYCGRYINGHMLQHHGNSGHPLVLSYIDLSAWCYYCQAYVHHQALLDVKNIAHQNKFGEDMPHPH
# Outline: as §1
# [4] = peptide conc. 1.00E-05 M, listed as des1.1.1_t1
# [5] = peptide conc. 1.00E-05 M, listed as des1.1.1_t2
# [6] = peptide conc. 1.11E-06 M, listed as des1.1.1_t1
# [7] = peptide conc. 1.11E-06 M, listed as des1.1.1_t2
# [8] = peptide conc. 1.23E-07 M, listed as des1.1.1_t1
# [9] = peptide conc. 1.23E-07 M, listed as des1.1.1_t2
# [10] = peptide conc. 1.37E-08 M, listed as des1.1.1_t1
# [11] = peptide conc. 1.37E-08 M, listed as des1.1.1_t2
# [12] = peptide conc. 1.52E-09 M, listed as des1.1.1_t1
# [13] = peptide conc. 1.52E-09 M, listed as des1.1.1_t2
# [14] = peptide conc. 3.33E-06 M, listed as des1.1.1_t1
# [15] = peptide conc. 3.33E-06 M, listed as des1.1.1_t2
# [16] = peptide conc. 3.70E-07 M, listed as des1.1.1_t1
# [17] = peptide conc. 3.70E-07 M, listed as des1.1.1_t2
# [18] = peptide conc. 4.12E-08 M, listed as des1.1.1_t1
# [19] = peptide conc. 4.12E-08 M, listed as des1.1.1_t2
# [20] = peptide conc. 4.57E-09 M, listed as des1.1.1_t1
# [21] = peptide conc. 4.57E-09 M, listed as des1.1.1_t2
# [22] = peptide conc. 5.08E-10 M, listed as des1.1.1_t1
# [23] = peptide conc. 5.08E-10 M, listed as des1.1.1_t2
compound,measurement,setting,value
"NCCCC[C@H]1NC(=O)[C@H](CCC(N)=O)NC(=O)[C@H](CCC(=O)O)NC(=O)[C@@H]2CCCN2C(=O)[C@H](CC(N)=O)NC(=O)[C@H](CCCCCS)NC(=O)CNC(=O)[C@H](Cc2c[nH]c3ccccc23)NC1=O [des1.1.1, SHA-Asn-Pro-Glu-Gln-dLys-Trp-Gly] (HELM PEPTIDE1{E.Q.[dK].W.G.[O=C([C@H](CCCCCS)N[*:1])[*:2]].N.P}$PEPTIDE1,PEPTIDE1,1:R1-8:R2$$$V2.0)",HDAC1 activity raw data (signal),[1]; [4],15449
same,HDAC1 activity raw data (signal),[1]; [5],6031
same,HDAC1 activity raw data (signal),[1]; [6],152129
same,HDAC1 activity raw data (signal),[1]; [7],83277
same,HDAC1 activity raw data (signal),[1]; [8],509662
same,HDAC1 activity raw data (signal),[1]; [9],396625
same,HDAC1 activity raw data (signal),[1]; [10],648866
same,HDAC1 activity raw data (signal),[1]; [11],876365
same,HDAC1 activity raw data (signal),[1]; [12],760286
same,HDAC1 activity raw data (signal),[1]; [13],1050479
same,HDAC1 activity raw data (signal),[1]; [14],53777
same,HDAC1 activity raw data (signal),[1]; [15],31360
same,HDAC1 activity raw data (signal),[1]; [16],243491
same,HDAC1 activity raw data (signal),[1]; [17],191722
same,HDAC1 activity raw data (signal),[1]; [18],677146
same,HDAC1 activity raw data (signal),[1]; [19],657201
same,HDAC1 activity raw data (signal),[1]; [20],723834
same,HDAC1 activity raw data (signal),[1]; [21],981941
same,HDAC1 activity raw data (signal),[1]; [22],712167
same,HDAC1 activity raw data (signal),[1]; [23],1083035
same,HDAC8 activity raw data (signal),[2]; [4],258617
same,HDAC8 activity raw data (signal),[2]; [5],8333740
same,HDAC8 activity raw data (signal),[2]; [6],532680
same,HDAC8 activity raw data (signal),[2]; [7],26455057
same,HDAC8 activity raw data (signal),[2]; [8],587120
same,HDAC8 activity raw data (signal),[2]; [9],38904462
same,HDAC8 activity raw data (signal),[2]; [10],802422
same,HDAC8 activity raw data (signal),[2]; [11],44804049
same,HDAC8 activity raw data (signal),[2]; [12],956971
same,HDAC8 activity raw data (signal),[2]; [13],49754188
same,HDAC8 activity raw data (signal),[2]; [14],289575
same,HDAC8 activity raw data (signal),[2]; [15],18105294
same,HDAC8 activity raw data (signal),[2]; [16],559845
same,HDAC8 activity raw data (signal),[2]; [17],34440414
same,HDAC8 activity raw data (signal),[2]; [18],916202
same,HDAC8 activity raw data (signal),[2]; [19],43441318
same,HDAC8 activity raw data (signal),[2]; [20],928568
same,HDAC8 activity raw data (signal),[2]; [21],47580068
same,HDAC8 activity raw data (signal),[2]; [22],688133
same,HDAC8 activity raw data (signal),[2]; [23],50930211
same,HDAC6 activity raw data (signal),"[3]; Conc. 1.00E-05 M, t1",2105
same,HDAC6 activity raw data (signal),"[3]; Conc. 1.11E-06 M, t1",66521
same,HDAC6 activity raw data (signal),"[3]; Conc. 1.11E-06 M, t2",22362
same,HDAC6 activity raw data (signal),"[3]; Conc. 1.23E-07 M, t1",195275
same,HDAC6 activity raw data (signal),"[3]; Conc. 1.23E-07 M, t2",111620
same,HDAC6 activity raw data (signal),"[3]; Conc. 1.37E-08 M, t1",384422
same,HDAC6 activity raw data (signal),"[3]; Conc. 1.37E-08 M, t2",355429
same,HDAC6 activity raw data (signal),"[3]; Conc. 1.52E-09 M, t1",513045
same,HDAC6 activity raw data (signal),"[3]; Conc. 1.52E-09 M, t2",553965
same,HDAC6 activity raw data (signal),"[3]; Conc. 3.33E-06 M, t1",30608
same,HDAC6 activity raw data (signal),"[3]; Conc. 3.70E-07 M, t1",121302
same,HDAC6 activity raw data (signal),"[3]; Conc. 3.70E-07 M, t2",45275
same,HDAC6 activity raw data (signal),"[3]; Conc. 4.12E-08 M, t1",327835
same,HDAC6 activity raw data (signal),"[3]; Conc. 4.12E-08 M, t2",217932
same,HDAC6 activity raw data (signal),"[3]; Conc. 4.57E-09 M, t1",470518
same,HDAC6 activity raw data (signal),"[3]; Conc. 4.57E-09 M, t2",472349
same,HDAC6 activity raw data (signal),"[3]; Conc. 5.08E-10 M, t1",541421
same,HDAC6 activity raw data (signal),"[3]; Conc. 5.08E-10 M, t2",570888
